This is an account of results in patent US5049673A, “Fluorescent indicator dyes for calcium working at long wavelengths” (The Regents of the University of California, priority 1987, dated 1991).

Like-named read-outs stand apart in the source and are kept apart here.

The conditions of assay [1]: pH 7.03, 100 mM KCl, 20° C; read-out: Apparent dissociation constant for the Ca^2+ complex; cited from earlier work.
For assay [2] the following is noted: pH 7.60, 0.12 M ionic strength, 20°; read-out: Apparent dissociation constant for the Mg^2+ complex (including monoprotonated form); cited from earlier work.
Assay [3] is described as follows: Calibration of [Ca2+] increases produced by UV photolysis of nitr-5 or nitr-7. The settings on record: results not shown. From the text: The most obvious difference between the present chelators and the previous tetracarboxylate Ca^2+ chelators is in their wavelengths of fluorescence excitation and emission. The new indicators' similarity to fluoresceins and rhodamines make them optically compatible with almost any fluorometer, fluorescence microscope, or flow cytometer already used for immunofluorescence detection. The fluorescein analogs fluo-1, -2, and -3 can be excited by incandescent illumination or the prominent 488 nm line of an […]. The rhodamine analogs rhod-1 rhod-2 are suited to incandescent illumination, the 531 nm line of a krypton-ion laser, or the 546 nm line of a mercury arc. By contrast, the earlier dyes quin-2 and fura-2 are best excited at 340-350 or 380-390 nm from a xenon lamp. Indo-1 does best with 350-360 nm from a xenon arc or the low-power UV lines of argon or krypton lasers. Optical elements for these UV wavelengths are preferably reflective or are made from quartz, glasses with enhanced UV transmission, or very thin ordinary glass. Plastics or thick (>1 mm) ordinary glass elements generally give too much absorbance or autofluorescence or both. By contrast, even these cheap optical materials are compatible with blue or green excitation.

For assay [4] the following is noted: room temperature, 0.1 M KCl, no added Mg^2+; read-out: Ca^2+ dissociation constant (Kd) used for FIG. 6; cited from earlier work.

On to `O=C(O)CN(CCOCCOCCN(CC(=O)O)CC(=O)O)CC(=O)O` [EGTA, ethylene glycol bis(-beta-aminoethyl ether)-N,N,N',N'-tetraacetic acid], for which the Kd is 0.327 µM in assay [1] and 6000 µM in assay [2].
For `Cc1ccc(N(CC(=O)O)CC(=O)O)c(OCCOc2cc3cc(-c4ncc(C(=O)O)o4)oc3cc2N(CC(=O)O)CC(=O)O)c1` [fura-2], the “Effect of excitation wavelengths on "caged" calcium” value in assay [3] is on record as “the excitation wavelengths began to photolyze the "caged" calcium”. For the same compound, the Kd in assay [4] was 0.135 µM.
